Data on 9 compounds can be found in PubChem BioAssay (NCI).

Holding throughout (assay): inhibition of tumour cell growth, NCI panel, 48 h
Experiment [1] deals with SF-295 CNS.
The subject of experiment [2] is RPMI-8226 leukemia.
For experiment [3], the system named is NCI/ADR-RES ovarian.
The subject of experiment [4] is SK-MEL-5 melanoma.
The subject of experiment [5] is OVCAR-4 ovarian.
Experiment [6] has as its system HT29 colon.
Experiment [7] concerns MOLT-4 leukemia.
The test system of experiment [8] is KM12 colon.
Experiment [9] relates to SNB-75 CNS.
Experiment [10] relates to MCF7 breast.

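Growth conditions: 96-well plates. Treatment: test compound, 48 hours, 5 concentrations. Analysis: linear interpolation between bracketing concentrations; unreached endpoints set to highest concentration. At the GI50, growth is halved. TGI: concentration producing complete growth inhibition.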

`C/C(=N\NC(=S)N1CC2CCC(CC2)C1)c1cccc(C)n1`: the TGI worked out at 13.1 µM in [1]; 17.1 µM in [2]; 13.7 µM in [4]; 16.1 µM in experiment [5]; 11.4 µM in experiment [6]; 0.00764 µM in experiment [7]. Also, the TGI in experiment [8] was 14.8 µM; in [9], 13.1 µM. In addition, the GI50 in experiment [2] is 0.16 µM; in experiment [3], under 0.0001 µM; in experiment [4] it was 0.287 µM; in [5], 0.000172 µM; in [6] it was under 0.0001 µM; in experiment [7], under 0.0001 µM.

As to `C[C@]1(Cn2ccnn2)C(C(=O)O)N2C(=O)CC2S1(=O)=O` (stereo not given in full), the GI50 in experiment [10], in experiment [1], in experiment [2], in [3], in experiment [4] and in [5] was over 100 µM each time. Besides, the GI50 in [6], in experiment [8] and in experiment [9] was over 100 µM throughout. Besides, the TGI in experiment [10], in [1], in experiment [2], in experiment [3], in experiment [4] and in experiment [5] was over 100 µM in each case. Also, the TGI in experiment [6], in [8] and in [9] was over 100 µM each time.

In the case of `CCCNC(=O)c1ccc(Cl)cc1Cl`, the GI50 in experiment [10], in experiment [1], in experiment [3], in experiment [4], in [5] and in experiment [6] was over 100 µM each time. Besides, the GI50 in experiment [7], in [8] and in experiment [9] was over 100 µM in each case. The TGI in experiment [10], in experiment [1], in experiment [3], in experiment [4], in experiment [5] and in [6] was over 100 µM in each case. The TGI in experiment [7], in experiment [8] and in experiment [9] was over 100 µM throughout.

As to `Cc1cc(N2CCCC2)nc(NCc2cc(Nc3ccnc4cc(Cl)ccc34)ccc2F)n1`, the GI50 in experiment [10] is 0.216 µM; in experiment [1], 1.16 µM; in [2], 0.404 µM; in experiment [3] it was 1.39 µM; in [4] it was 1.01 µM; in experiment [6] it was 0.286 µM. In addition, the GI50 in experiment [8] was 1.52 µM. Further, the TGI in experiment [10] worked out at 1.07 µM; in [1] it was 2.53 µM; in experiment [2], 5.04 µM; in experiment [3], 2.99 µM; in [4], 2.2 µM; in experiment [6], 1.23 µM. In experiment [8], this compound displayed a TGI of 3.01 µM.

In the case of `CC(/C=C/c1ccccc1)=N\NC(N)=S`, the TGI in experiment [10] was over 100 µM; in experiment [1], 61.2 µM; in [2], 93.5 µM; in experiment [3], 84 µM; in experiment [4], over 100 µM; in experiment [6], over 100 µM. Further, the TGI in [7] and in experiment [8] was over 100 µM each time.

`Cc1ccc(C2=C(c3ccccc3)C(c3ccccc3)Oc3ccc(C)cc32)cc1` (stereo not given): the GI50 in [10] was 3.33 µM; in [1], 3.66 µM; in experiment [2], 6.97 µM; in experiment [3], 2.18 µM; in experiment [4], 1.92 µM; in [5], 2.27 µM. The values for the GI50 in experiment [7] and in experiment [8] were 8.86 µM and 5.5 µM, respectively. In addition, the TGI in [10] was 13.1 µM; in experiment [1], 13.8 µM; in [2], 41.3 µM; in [3], 5.35 µM; in [4], 3.63 µM; in [5] it was 7.44 µM. The results for the TGI in experiment [7] and in experiment [8] were 31.5 µM and 23.6 µM, respectively.

Regarding `Cc1ccc(C2=Nc3c(N)ncnc3NC(c3ccc4c(c3)OCO4)C2)cc1` (stereo not given), the GI50 was 3.42 µM in experiment [10]; 3.45 µM in [1]; 3.52 µM in experiment [3]; 3.85 µM in experiment [4]; 17.7 µM in experiment [5]; 3.81 µM in [6]. Also, the GI50 was 2.66 µM in experiment [7], 3.79 µM in experiment [8] and 4.55 µM in [9]. The TGI in [10] is over 100 µM; in experiment [1] it was 21.7 µM; in experiment [3], 22.9 µM; in experiment [4], 37.5 µM; in experiment [5] it was 74.9 µM; in [6], 33.9 µM. Besides, the TGI in experiment [7] is over 100 µM; in experiment [8], 15 µM; in experiment [9], 37.2 µM.

As to `Oc1ccc(CCNCc2cc3c(cc2Br)OCO3)cc1`, the TGI in [10], in [1], in experiment [2], in [3], in experiment [4] and in [6] was over 100 µM each time. The TGI in [7] was over 100 µM; in [9], 84.8 µM.

Take `C=CC/C(=C\COP(=O)(OCc1ccc([N+](=O)[O-])o1)N(C)CCCCCl)CC/C=C(\C)CCC=C(C)C` (stereo not given): the GI50 in experiment [1] was 0.0171 µM; in [2], 4.66 µM; in experiment [3], 11.9 µM; in experiment [5] it was 17.2 µM; in experiment [6], 11.6 µM; in experiment [7], 8.03 µM. Moreover, the figures for the GI50 in [8] and in [9] were 9.94 µM and 13.5 µM, respectively. In addition, the TGI amounted to 3.21 µM in [1]; 19.3 µM in [2]; 24.1 µM in experiment [3]; 39.3 µM in experiment [5]; 25.5 µM in experiment [6]; 36.3 µM in experiment [7]. For the same compound, the results for the TGI in [8] and in experiment [9] were over 100 µM and 29.1 µM, respectively.
